Laboratory results taken from patent US6046217A, “2,3,5-trisubstituted pyridines as inhibitors of cyclooxygenase-2” (Merck Frosst Canada & Co., priority 1998, dated 2000).
Read-outs that look alike come from different tables or passages of the source.

Columns and labels:
COX-1 = COX-1 (Homo sapiens, UniProt P23219); experiment: Assay of COX-1 activity from U937 cell microsomes (PGE2); assay type: biochemical; design: Assay of COX-1 Activity from U937 Cell Microsomes; endogenous in cells; host or cells: U937 cells, 100,000 x g microsomal pellet; settings: U-937 cell microsomes, 15 min preincubation; read-out: COX-1 (IC50 mM) U-937
Experimental: U 937 cells are pelleted by centrifugation at 500×g for 5 min and washed once with phosphate-buffered saline and repelleted. Cells are resuspended in homogenization buffer consisting of 0.1 M Tris-HCl, pH 7.4, 10 mM EDTA, […] leupeptin, 2 μg/ml soybean trypsin inhibitor, 2 μg/ml aprotinin and 1 mM phenyl methyl sulfonyl fluoride. The cell suspension is sonicated 4 times for 10 sec and is centrifuged at 10,000×g for 10 min at 4° C. The supernatant is centrifuged at 100,000×g for 1 hr at 4° C. The 100,000×g microsomal pellet is resuspended in 0.1 M Tris-HCl, pH 7.4, 10 mM EDTA to approximately 7 mg protein/ml and stored at -80° C.
Microsomal preparations are thawed immediately prior to use, subjected to a brief sonication, and then diluted to a protein concentration of 125 μg/ml in 0.1 M Tris-HCl buffer, pH 7.4 containing 10 mM EDTA, 0.5 mM phenol, 1 mM reduced glutathione and 1 μM hematin. Assays are performed in duplicate in a final volume of 250 μl. Initially, 5 μl of DMSO vehicle or drug in DMSO are added to 20 μl of 0.1 M Tris-HCl buffer, pH 7.4 containing 10 mM EDTA in wells of a 96-deepwell polypropylene titre plate. 200 μl of the microsomal preparation are then added and pre-incubated for 15 min at room temperature before addition of 25 μl of […] arachidonic acid in […] Tris-HCl and 10 mM EDTA, pH 7.4. Samples are incubated for 40 min at room temperature and the reaction is stopped by the addition of 25 μl of 1 N HCl. Samples are neutralized with 25 μl of 1 N NaOH prior to quantitation of PGE2 content by radioimmunoassay (Dupont-NEN or Amersham assay kits). Cyclooxygenase activity is defined as the difference between PGE2 levels in samples incubated in the presence of arachidonic acid and ethanol vehicle.
In the assay, inhibition is determined by measuring the amount of prostaglandin E2 (PGE2) synthesized in the presence of arachidonic acid, cyclooxygenase-1 or cyclooxygenase-2 and a putative inhibitor.

COX-2 [1] = biological target: T1, COX-2 (Homo sapiens, UniProt P35354); experiment: cell-based; settings: CHO[hCOX-2] cells, 10 μM AA, 15 min preincubation; read-out: COX-2 (IC50 mM) CHO
T1 sequence (P35354 18-604): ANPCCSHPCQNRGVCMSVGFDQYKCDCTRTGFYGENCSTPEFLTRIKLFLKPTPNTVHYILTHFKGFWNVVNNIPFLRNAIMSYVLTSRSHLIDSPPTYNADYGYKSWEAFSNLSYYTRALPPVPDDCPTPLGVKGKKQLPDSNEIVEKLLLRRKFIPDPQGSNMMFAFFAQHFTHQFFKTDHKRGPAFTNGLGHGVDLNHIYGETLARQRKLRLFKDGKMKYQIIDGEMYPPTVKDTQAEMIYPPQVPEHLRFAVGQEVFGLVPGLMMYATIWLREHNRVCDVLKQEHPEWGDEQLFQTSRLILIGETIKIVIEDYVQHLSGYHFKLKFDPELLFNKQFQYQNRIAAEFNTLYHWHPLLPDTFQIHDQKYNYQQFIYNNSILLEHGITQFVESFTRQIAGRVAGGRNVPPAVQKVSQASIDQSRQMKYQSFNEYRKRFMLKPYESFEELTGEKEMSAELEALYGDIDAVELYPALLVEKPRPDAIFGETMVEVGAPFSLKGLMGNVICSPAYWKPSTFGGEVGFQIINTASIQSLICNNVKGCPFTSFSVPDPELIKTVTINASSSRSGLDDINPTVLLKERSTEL

COX-2 [2] = biological target: T1, COX-2; experiment: cell-based; settings: human whole blood, LPS-induced PGE2, 24 h; read-out: COX-2 (IC50 mM) HWB
Text: As well, platelets in whole blood contain a large amount of the COX-1 enzyme. Immediately following blood clotting, platelets are activated through a thrombin-mediated mechanism. This reaction results in the production of thromboxane B2 (TxB2) via activation of COX-1. Thus, the effect of test compounds on TxB2 levels following blood clotting can be examined and used as an index for COX-1 activity. Therefore, the degree of selectivity by the test compound can be determined by measuring the levels of PGE2 after LPS induction (COX-2) and TxB2 following blood clotting (COX-1) in the same assay.
Fresh blood is collected in heparinized tubes by venipuncture from both male and female volunteers. The subjects have no apparent inflammatory conditions and have not taken any NSAIDs for at least 7 days prior to blood collection. Plasma is immediately obtained from a 2mL blood aliquot to use as blank (basal levels of PGE2). The remaining blood is incubated with LPS (100 μg/ml final concentration, Sigma Chem, #L-2630 from E. coli; diluted in 0.1% BSA (Phosphate buffered saline) for 5 minutes at room temperature. Five hundred […] aliquots of blood are incubated with either 2 μL of vehicle (DMSO) or 2 μL of a test compound at final concentrations varying from 10 nM to 30 μM for 24 hours at 37° C. At the end of the incubation, the blood is centrifuged at 12,000×g for 5 minutes to obtain plasma. A 100 μL aliquot of plasma is mixed with 400 μL of methanol for protein precipitation. The supernatant is obtained and is assayed for PGE2 using a radioimmunoassay kit (Amersham, RPA#530) after conversion of PGE2 to its methyl oximate derivative according to the manufacturer's procedure. […]

Sequence of COX-1 (P23219 24-599): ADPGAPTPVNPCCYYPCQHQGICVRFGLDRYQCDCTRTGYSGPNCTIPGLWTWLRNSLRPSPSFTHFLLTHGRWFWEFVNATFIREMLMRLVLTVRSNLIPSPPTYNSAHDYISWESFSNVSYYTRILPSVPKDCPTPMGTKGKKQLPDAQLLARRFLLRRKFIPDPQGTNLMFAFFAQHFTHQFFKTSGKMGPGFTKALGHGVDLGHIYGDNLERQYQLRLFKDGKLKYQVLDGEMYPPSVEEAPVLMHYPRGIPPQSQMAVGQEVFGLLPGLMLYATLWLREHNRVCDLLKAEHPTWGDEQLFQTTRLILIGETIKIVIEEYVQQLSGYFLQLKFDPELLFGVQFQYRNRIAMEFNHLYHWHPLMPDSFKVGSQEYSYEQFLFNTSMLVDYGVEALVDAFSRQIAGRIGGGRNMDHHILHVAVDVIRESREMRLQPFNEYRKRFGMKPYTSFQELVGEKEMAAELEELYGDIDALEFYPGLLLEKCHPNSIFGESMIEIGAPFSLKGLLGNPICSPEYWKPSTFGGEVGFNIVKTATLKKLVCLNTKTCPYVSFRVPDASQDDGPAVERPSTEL

| Structure (SMILES) | IC50 (COX-1) | IC50 (COX-2 [1]) | IC50 (COX-2 [2]) |
| --- | --- | --- | --- |
| CS(=O)(=O)c1ccc(-c2cc(C(F)(F)F)cnc2O[C@@H]2CCC[C@@H]2O)cc1 (relative stereo) [Example 29, 2-(cis-2-Hydroxycyclopentyloxy)-3-(4-methylsulfonyl)phenyl-5-trifluoromethylpyridine] | > 0.01 mM |  |  |
| CS(=O)(=O)c1ccc(-c2cc(C(F)(F)F)cnc2O[C@H]2CCC[C@@H]2O)cc1 (relative stereo) [Example 30, 2-(trans-2-Hydroxycyclopentyloxy)-3-(4-methylsulfonyl)phenyl-5-trifluoromethylpyridine] | 0.003 to 0.01 mM |  |  |
| C[C@]1(O)CCC[C@H]1Oc1ncc(C(F)(F)F)cc1-c1ccc(S(N)(=O)=O)cc1 (relative stereo) [Example 33, 3-(4-aminosulfonyl)phenyl-2-(cis-2-hydroxy-2-methylcyclopentyloxy)-5-trifluoromethylpyridine] | 0.01 mM | 0.04 µM | 0.0037 mM |
| C[C@]1(O)CCC[C@H]1Oc1ncc(Cl)cc1-c1ccc(S(C)(=O)=O)cc1 (relative stereo) [Example 34, 5-Chloro-2-(cis-2-hydroxy-2-methylcyclopentyloxy)-3-(4-methylsulfonyl)phenylpyridine] | > 0.01 mM | 0.1 µM | 0.0017 mM |
| C[C@@]1(O)CCC[C@H]1Oc1ncc(C(F)(F)F)cc1-c1ccc(S(C)(=O)=O)cc1 (relative stereo) [Example 35, 2-(trans-2-Hydroxy-2-methylcyclopentyloxy)-3-(4-methylsulfonyl)phenyl-5-trifluoromethylpyridine] | 0.001 to 0.003 mM |  |  |
| CC[C@]1(O)CCC[C@H]1Oc1ncc(C(F)(F)F)cc1-c1ccc(S(C)(=O)=O)cc1 (relative stereo) [Example 36, 2-(cis-2-Hydroxy-2-ethylcyclopentyloxy)-3-(4-methylsulfonyl)phenyl-5-trifluoromethylpyridine] | > 0.01 mM | 0.17 µM | 0.0031 mM |
| C[C@@]1(O)CCCC[C@@H]1Oc1ncc(C(F)(F)F)cc1-c1ccc(S(C)(=O)=O)cc1 (relative stereo) [Example 37, 2-(cis-2-Hydroxy-2-methylcyclohexyloxy)-3-(4-methylsulfonyl)phenyl-5-trifluoromethylpyridine] | > 0.01 mM | 0.57 µM | 0.0065 mM |
| CCC(C)(O)CSc1ncc(C(F)(F)F)cc1-c1ccc(S(C)(=O)=O)cc1 (single isomer, unassigned; (+)) [Example 45, (+)-2-(2-Hydroxy-2-methyl-1-thiobutyloxy)-3-(4-methylsulfonyl)phenyl-5-trifluoromethylpyridine] | 0.003 to 0.01 mM |  |  |
| CCC(C)(O)CSc1ncc(C(F)(F)F)cc1-c1ccc(S(C)(=O)=O)cc1 (single isomer, unassigned; (-)) [Example 46, (-)-2-(2-Hydroxy-2-methyl-1-thiobutyloxy)-3-(4-methylsulfonyl)phenyl-5-trifluoromethylpyridine] | 0.001 to 0.003 mM |  |  |
| COCCOc1ncc(C(F)(F)F)cc1-c1ccc(S(C)(=O)=O)cc1 [Example 2, 2-(2-Methoxy)ethoxy-3-(4-methylsulfonyl)phenyl-5-trifluoromethylpyridine] | 0.001 to 0.003 mM | 0.02 µM | 0.0013 mM |
| CC(C)(O)COc1ncc(C(F)(F)F)cc1-c1ccc(S(C)(=O)=O)cc1 [Example 4, 2-(2-Hydroxy-2-methyl-1-propyloxy)-3-(4-methylsulfonyl)phenyl-5-trifluoromethylpyridine] | > 0.1 mM | 0.15 µM | 0.0008 mM |
| CC(C)(O)COc1ncc(Cl)cc1-c1ccc(S(C)(=O)=O)cc1 [Example 5, 5-Chloro-2-(2-hydroxy-2-methyl-1-propyloxy)-3-(4-methylsulfonyl)phenylpyridine] | > 0.1 mM | 0.11 µM | 0.0036 mM |
| COC(C)(C)COc1ncc(C(F)(F)F)cc1-c1ccc(S(C)(=O)=O)cc1 [Example 6, 2-(2-Methoxy-2-methyl-1-propyloxy)-3-(4-methylsulfonyl)phenyl-5-trifluoromethylpyridine] | 0.003 to 0.01 mM | 0.03 µM | < 0.0004 mM |
| CCC(C)(O)COc1ncc(C(F)(F)F)cc1-c1ccc(S(C)(=O)=O)cc1 (centres unmarked) [Example 7, 2-(2-Hydroxy-2-methyl-1-butyloxy)-3-(4-methylsulfonyl)phenyl-5-trifluoromethylpyridine] | > 0.01 mM | 0.13 µM | 0.001 mM |
| CCC(O)(CC)COc1ncc(C(F)(F)F)cc1-c1ccc(S(C)(=O)=O)cc1 [Example 8, 2-(2-Hydroxy-2-ethyl-1-butyloxy)-3-(4-methylsulfonyl)phenyl-5-trifluoromethylpyridine] | > 0.01 mM | 0.19 µM | 0.0011 mM |
| CCC(O)(CC)COc1ncc(Cl)cc1-c1ccc(S(C)(=O)=O)cc1 [Example 9, 5-Chloro-2-(2-hydroxy-2-ethyl-1-butyloxy)-3-(4-methylsulfonyl)phenylpyridine] | > 0.01 mM | 0.07 µM | 0.0016 mM |
| CS(=O)(=O)c1ccc(-c2cc(C(F)(F)F)cnc2OCC2(O)CC2)cc1 [Example 11, 2-(1-Hydroxycyclopropyl)methoxy-3-(4-methylsulfonyl)phenyl-5-trifluoromethylpyridine] | 0.01 mM | 0.09 µM | 0.0016 mM |
| CS(=O)(=O)c1ccc(-c2cc(C(F)(F)F)cnc2OCC2(O)CCC2)cc1 [Example 12, 2-(1-Hydroxycyclobutyl)methoxy-3-(4-methylsulfonyl)phenyl-5-trifluoromethylpyridine] | > 0.01 mM | 0.05 µM | 0.0013 mM |
| C[C@H](Oc1ncc(C(F)(F)F)cc1-c1ccc(S(C)(=O)=O)cc1)C(C)(C)O [Example 16, 2-((2S)-3-Hydroxy-3-methyl-2-butyloxy)-3-(4-methylsulfonyl)phenyl-5-trifluoromethylpyridine] | > 0.01 mM | 0.43 µM | 0.0006 mM |
| C[C@@H](Oc1ncc(Cl)cc1-c1ccc(S(C)(=O)=O)cc1)C(C)(C)O [Example 18, 5-Chloro-2-((2R)-3-Hydroxy-3-methyl-2-butyloxy)-3-(4-methylsulfonyl)phenylpyridine] | > 0.01 mM | 0.08 µM | 0.0004 mM |
